According to PubChem BioAssay (NCI):
Where “and” joins values, the source holds several entries; their conditions need not be identical. Identical values can stand only once.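 Tested at 5 concentrations; 48 h exposure; 96-well plates; endpoints linearly interpolated, else capped at highest concentration. GI50 is the concentration that inhibits growth by half. TGI: concentration producing complete growth inhibition.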

Legend:
Assay in all cases: inhibition of tumour cell growth, NCI panel, 48 h
[1] = system: UO-31 renal
[2] = system: HCT-15 colon
[3] = system: ACHN renal
[4] = system: HS 578T breast
[5] = system: NCI/ADR-RES ovarian
[6] = system: NCI-H460 lung
[7] = system: EKVX NSCLC
[8] = system: DU-145 prostate
[9] = system: MCF7 breast
[10] = system: HCC-2998 colon
[11] = system: OVCAR-5 ovarian
[12] = system: SN12C renal
[13] = system: MALME-3M melanoma
[14] = system: SNB-19 CNS
[15] = system: BT-549 breast
[16] = system: SF-539 CNS
[17] = system: KM12 colon
[18] = system: HT29 colon
[19] = system: K-562 leukemia
[20] = system: HL-60(TB) leukemia
[21] = system: SK-MEL-5 melanoma
[22] = system: MDA-MB-231 breast
[23] = system: OVCAR-4 ovarian
[24] = system: MDA-N
[25] = system: COLO 205 colon
[26] = system: A498 renal
[27] = system: TK-10 renal
[28] = system: SNB-75 CNS
[29] = system: NCI-H23 lung
[30] = system: SR leukemia
[31] = system: 786-0 renal
[32] = system: NCI-H226 lung
[33] = system: PC-3 prostate
[34] = system: M14 melanoma
[35] = system: IGROV1 ovarian
[36] = system: SW-620 colon
[37] = system: SK-OV-3 ovarian
[38] = system: A549 NSCLC
[39] = system: T-47D breast
[40] = system: SK-MEL-28 melanoma
[41] = system: SK-MEL-2 melanoma
[42] = system: HOP-62 NSCLC
[43] = system: HCT-116 colon
[44] = system: NCI-H522 lung
[45] = system: SF-295 CNS
[46] = system: SF-268 CNS
[47] = system: OVCAR-3 ovarian
[48] = system: UACC-257 melanoma
[49] = system: HOP-92 NSCLC
[50] = system: RPMI-8226 leukemia
[51] = system: U251 CNS
[52] = system: UACC-62 melanoma
[53] = system: OVCAR-8 ovarian
[54] = system: RXF 393 renal
[55] = system: CCRF-CEM leukemia
[56] = system: MDA-MB-435
[57] = system: CAKI-1 renal
[58] = system: LOX IMVI melanoma
[59] = system: MOLT-4 leukemia

## CC1=C(/C=C/C(C)=C/C=C/C(C)=C/C(=O)Nc2ccc(O)cc2)C(C)(C)CCC1
[1]
  GI50: 1.17 µM
  TGI: 2.57 µM and 11.6 µM
[2]
  TGI: 17.9 µM and 25.2 µM
[3]
  GI50: 4.79 µM
  TGI: 16.3 µM and 17.7 µM
[4]
  GI50: 6.25 µM
  TGI: 27.4 µM and 13.7 µM
[5]
  GI50: 2.29 µM
  TGI: 7.07 µM and 18.4 µM
[6]
  GI50: 2.58 µM
  TGI: 9.48 µM and 25.2 µM
[7]
  GI50: 5.14 µM
  TGI: 20.7 µM and 25.2 µM
[8]
  GI50: 2.93 µM
  TGI: 12.1 µM and 21.4 µM
[9]
  GI50: 1.4 µM
  TGI: 9.59 µM and 12.9 µM
[10]
  GI50: 2.12 µM
  TGI: 5.97 µM and 18 µM
[11]
  GI50: 12.5 µM
  TGI: 26.8 µM and 24 µM
[12]
  GI50: 1.61 µM
  TGI: 5.23 µM and 5.63 µM
[13]
  GI50: 2.1 µM
  TGI: 6.48 µM and 18.7 µM
[14]
  GI50: 4.83 µM
  TGI: 20.4 µM and 18.2 µM
[15]
  GI50: 0.826 µM
  TGI: 7.44 µM and 18.6 µM
[16]
  GI50: 0.355 µM
  TGI: 1.73 µM and 3.39 µM
[17]
  GI50: 1.58 µM
  TGI: 6.19 µM and 17.2 µM
[18]
  TGI: 7.6 µM and 14.9 µM
[19]
  GI50: 1.38 µM
  TGI: 4.28 µM and > 40.4 µM
[20]
  GI50: 0.278 µM
  TGI: 1.31 µM and 9.51 µM
[21]
  GI50: 2.1 µM
  TGI: 7.21 µM and 12 µM
[22]
  GI50: 1.79 µM
  TGI: 10.1 µM and 6.06 µM
[23]
  GI50: 2.6 µM
  TGI: 9.53 µM and 14.8 µM
[24]
  TGI: 8.35 µM
[25]
  GI50: 1.58 µM
  TGI: 4.8 µM and 8.28 µM
[26]
  GI50: 1.96 µM
  TGI: 9.07 µM and 19.1 µM
[27]
  GI50: 5.07 µM
  TGI: 15.5 µM and 35.4 µM
[28]
  GI50: 1.81 µM
  TGI: 5.85 µM and 23.2 µM
[29]
  GI50: 1.83 µM
  TGI: 5.41 µM and 5.3 µM
[30]
  GI50: 2.53 µM and 1.33 µM
  TGI: 6.02 µM and 5.97 µM
[31]
  GI50: 1.72 µM
  TGI: 4.36 µM and 10.9 µM
[32]
  GI50: 10.3 µM
  TGI: 23.9 µM and 16.7 µM
[33]
  GI50: 1.37 µM
  TGI: 4.61 µM and 12.7 µM
[34]
  GI50: 4.05 µM
  TGI: 12.7 µM and 18.7 µM
[35]
  GI50: 1.19 µM
  TGI: 3.68 µM and 4.91 µM
[36]
  TGI: 13.7 µM and 44.5 µM
[37]
  GI50: 2.82 µM
  TGI: 9.71 µM and 17.2 µM
[38]
  GI50: 2.43 µM
  TGI: 14.2 µM and 26.5 µM
[39]
  GI50: 1.31 µM
  TGI: 9.24 µM and 15.5 µM
[40]
  GI50: 2.87 µM
  TGI: 8.69 µM and 12.1 µM
[41]
  GI50: 4.17 µM
  TGI: 13.3 µM and 17.4 µM
[42]
  TGI: 9.95 µM and 15.2 µM
[43]
  GI50: 2.05 µM
  TGI: 4.6 µM and 15.7 µM
[44]
  GI50: 0.262 µM
  TGI: 0.787 µM and 2.82 µM
[45]
  GI50: 0.932 µM
  TGI: 3.74 µM and 12.3 µM
[46]
  GI50: 1.52 µM
  TGI: 3.94 µM and 14.2 µM
[47]
  GI50: 1.5 µM
  TGI: 3.13 µM and 7.54 µM
[48]
  GI50: 4.55 µM
  TGI: 17.4 µM and 24 µM
[49]
  GI50: 1.77 µM
  TGI: 4.1 µM and 6.11 µM
[50]
  GI50: 1.09 µM
  TGI: 8.9 µM and 9.14 µM
[51]
  GI50: 1.94 µM
  TGI: 7.79 µM and 33.3 µM
[52]
  TGI: 6.94 µM and 7.34 µM
[53]
  GI50: 2.56 µM
  TGI: 8.48 µM and 10.2 µM
[54]
  TGI: 6.5 µM and 5.43 µM
[55]
  GI50: 0.238 µM
  TGI: 13.5 µM and 3.59 µM
[56]
  GI50: 1.9 µM
  TGI: 5.99 µM and 18.7 µM
[57]
  GI50: 3.87 µM
  TGI: 15.8 µM and 13.6 µM
[58]
  GI50: 0.588 µM
  TGI: 2.26 µM and 4.76 µM
[59]
  GI50: 0.391 µM
  TGI: 2.11 µM and 5.53 µM
